The target of one test is GSK3α (Homo sapiens (Human), UniProt P49840). In words: GSK 3α enzyme inhibition (FRET, Z-LYTE; Method 2). Format: biochemical. How it is done:
The enzyme inhibitory activities of compounds disclosed herein are determined by FRET using synthetic peptides labelled with both donor and acceptor fluorophores (Z-LYTE, Invitrogen Ltd., Paisley, UK).
The inhibitory activities of compounds of the invention against the GSK 3α enzyme isoform (Invitrogen), are evaluated by determining the level of activation/phosphorylation of the target peptide. The GSK3-α protein (500 ng/mL, 2.5 μL) is mixed with the test compound (2.5 μL at either 4 μg/mL, 0.4 μg/mL, 0.04 μg/mL, or 0.004 μg/mL) for 2 hr at RT. The FRET peptide (8 μM, 2.5 μL), which is a phosphorylation target for GSK3α, and ATP (40 μM, 2.5 μL) are then added to the enzyme/compound mixture and the resulting mixture incubated for 1 hr. Development reagent (protease, 5 μL) is added for 1 hr prior to detection in a fluorescence microplate reader (Varioskan® Flash, ThermoFisher Scientific).
In all cases, the site-specific protease cleaves non-phosphorylated peptide only and eliminates the FRET signal. Phosphorylation levels of each reaction are calculated using the ratio of coumarin emission (donor) over fluorescein emission (acceptor), for which high ratios indicate high phosphorylation and low ratios indicate low phosphorylation levels. The percentage inhibition of each reaction is calculated relative to non-inhibited control and the 50% inhibitory concentration (IC50 value) is then calculated from the concentration-response curve.
This method follows the same steps as Method 1 above, but utilises a shorter period of mixing of the test compound (105 minutes instead of 2 hours) with the GSK3-α protein.

The test system of a further test is PBMCs. Briefly: LPS-induced TNFα/IL-8 release in PBMC cells. The class given is cell-based. The note with it: Homo sapiens, LPS-stimulated PBMCs. The method, then:
Peripheral blood mononuclear cells (PBMCs) from healthy subjects are separated from whole blood using a density gradient (Lymphoprep, Axis-Shield Healthcare). The PBMCs are seeded in 96 well plates and treated with compounds at the desired concentration for 2 hours before addition of 1 ng/mL LPS (Escherichia Coli 0111:B4 from Sigma Aldrich) for 24 hours under normal tissue culture conditions (37° C., 5% CO2). The supernatant is harvested for determination of IL-8 and TNFα concentrations by sandwich ELISA (Duo-set, R&D systems) and read on the fluorescence microplate reader (Varioskan® Flash, ThermoFisher Scientific). The concentration at 50% inhibition (IC50) of IL-8 and TNFα production is calculated from the dose response curve.

The mark [1] stands for this setting: IL-8, read-out: IC50 Values for Inhibition of Cytokine Release, PBMCs IL-8.
Setting [2] is: TNFα, read-out: IC50 Values for Inhibition of Cytokine Release, PBMCs TNFα.

Where two headings read alike, the source gives them in different places.

GSK3α, sequence (P49840 whole entry): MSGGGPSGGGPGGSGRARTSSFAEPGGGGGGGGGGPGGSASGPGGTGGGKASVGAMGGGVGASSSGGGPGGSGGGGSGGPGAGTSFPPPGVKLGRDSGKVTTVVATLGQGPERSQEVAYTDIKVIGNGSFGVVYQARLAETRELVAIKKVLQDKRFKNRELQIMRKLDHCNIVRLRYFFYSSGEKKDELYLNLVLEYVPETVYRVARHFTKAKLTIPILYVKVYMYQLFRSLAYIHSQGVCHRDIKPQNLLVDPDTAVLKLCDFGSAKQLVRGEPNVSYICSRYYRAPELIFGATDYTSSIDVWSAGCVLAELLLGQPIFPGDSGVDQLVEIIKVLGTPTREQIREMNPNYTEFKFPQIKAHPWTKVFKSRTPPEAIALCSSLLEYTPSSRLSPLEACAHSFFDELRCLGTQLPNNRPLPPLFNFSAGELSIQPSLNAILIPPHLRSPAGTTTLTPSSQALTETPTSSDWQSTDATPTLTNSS

`C[Si](C)(C)c1cc(NC(=O)Nc2ccc(Oc3ccnc(Nc4ccccc4)n3)c3ccccc23)n(-c2ccc(P(C)(C)=O)cc2)n1` [Example 5, 1-(1-(4-(Dimethylphosphoryl)phenyl)-3-(trimethylsilyl)-1H-pyrazol-5-yl)-3-(4-((2-(phenyl-amino)pyrimidin-4-yl)oxy)naphthalen-1-yl)urea]: the values for the IC50 at GSK3α, with PBMCs (setting [1]) and in the test on PBMCs (setting [2]) were 429 nM, 16.3 nM and 4.3 nM, respectively.

Regarding `CC(C)(C)c1cc(NC(=O)Nc2ccc(Oc3ccnc(Nc4ccccc4)n3)c3ccccc23)n(-c2ccc(CP(C)(C)=O)cc2)n1` [Example 6, 1-(3-(tert-Butyl)-1-(4-((dimethylphosphoryl)methyl)phenyl)-1H-pyrazol-5-yl)-3-(4-((2-(phenylamino)pyrimidin-4-yl)oxy)naphthalen-1-yl)urea], the IC50 came to 183 nM on GSK3α, 6.4 nM in the test with PBMCs (setting [1]) and 2.5 nM in the test with PBMCs (setting [2]).

For `CC(C)(C)c1cc(NC(=O)Nc2ccc(Oc3ccnc(Nc4ccc5[nH]ncc5c4)n3)c3ccccc23)n(-c2ccc(P(C)(C)=O)cc2)n1` [Example 7, 1-(4-((2-((1H-Indazol-5-yl)amino)pyrimidin-4-yl)oxy)naphthalen-1-yl)-3-(3-(tert-butyl)-1-(4-(dimethylphosphoryl)phenyl)-1H-pyrazol-5-yl)urea], the IC50 stood at 486 nM against GSK3α, 6.7 nM with PBMCs (setting [1]) and 2.5 nM in the test with PBMCs (setting [2]).

Regarding `CC(C)(C)c1cc(NC(=O)Nc2ccc(Oc3ccnc(Nc4ccccc4)n3)c3ccccc23)n(-c2ccc(P3(=O)CCCC3)cc2)n1` [Example 8, 1-(3-(tert-Butyl)-1-(4-(1-oxidophospholan-1-yl)phenyl)-1H-pyrazol-5-yl)-3-(4-((2-(phenylamino)pyrimidin-4-yl)oxy)naphthalen-1-yl)urea], the IC50 at GSK3α was determined as 849 nM; in the test with PBMCs (setting [1]), 17.2 nM; with PBMCs (setting [2]) it was 4.8 nM.

For the compound `CCOP(C)(=O)c1ccc(-n2nc(C(C)(C)C)cc2NC(=O)Nc2ccc(Oc3ccnc(Nc4ccccc4)n3)c3ccccc23)cc1` (stereo not drawn) [Example 9, Ethyl (4-(3-(tert-butyl)-5-(3-(4-((2-(phenylamino)pyrimidin-4-yl)oxy)naphthalen-1-yl)-ureido)-1H-pyrazol-1-yl)phenyl)(methyl)phosphinate], the results for the IC50 against GSK3α, in the test on PBMCs (setting [1]) and in the test on PBMCs (setting [2]) were 1440 nM, 24 nM and 6.2 nM, respectively.

For `CC(C)(C)c1cc(NC(=O)Nc2ccc(Oc3ccnc(Nc4ccc5[nH]ncc5c4)n3)c3ccccc23)n(-c2cccc(P(C)(C)=O)c2)n1` [Example 10, 1-(4-((2-((1H-Indazol-5-yl)amino)pyrimidin-4-yl)oxy)naphthalen-1-yl)-3-(3-(tert-butyl)-1-(3-(dimethylphosphoryl)phenyl)-1H-pyrazol-5-yl)urea], the IC50 against GSK3α came out at 684 nM; with PBMCs (setting [1]), 13.7 nM; in the test with PBMCs (setting [2]), 4 nM.

In the case of `CC(C)(C)c1cc(NC(=O)Nc2ccc(Oc3ccnc(Nc4ccc5c(c4)NC(=O)C5)n3)c3ccccc23)n(-c2cccc(P(C)(C)=O)c2)n1` [Example 11], the IC50 came to 205 nM against GSK3α, 16.2 nM in the test with PBMCs (setting [1]) and 2.7 nM in the test on PBMCs (setting [2]).

Regarding `CC(C)(C)c1cc(NC(=O)Nc2ccc(Oc3ccnc(Nc4ccc5onc(N)c5c4)n3)c3ccccc23)n(-c2cccc(P(C)(C)=O)c2)n1` [Example 12], the figures for the half-inhibitory concentration (IC50) against GSK3α, with PBMCs (setting [1]) and in the test with PBMCs (setting [2]) were 73 nM, 8.5 nM and 1.8 nM, respectively.

For the compound `Cc1cc(Nc2nccc(Oc3ccc(NC(=O)Nc4cc(C(C)(C)C)nn4-c4cccc(P(C)(C)=O)c4)c4ccccc34)n2)cc2cn[nH]c12` [Example 13, 1-(3-(tert-Butyl)-1-(3-(dimethylphosphoryl)phenyl)-1H-pyrazol-5-yl)-3-(4-((2-((7-methyl-1H-indazol-5-yl)amino)pyrimidin-4-yl)oxy)naphthalen-1-yl)urea], the IC50 on GSK3α worked out at 208 nM; in the test on PBMCs (setting [1]), 3.4 nM; with PBMCs (setting [2]), 1.7 nM.

Consider `CC(C)(C)c1cc(NC(=O)Nc2ccc(Oc3ccnc(Nc4ccc5c(c4)NC(=O)C5)n3)c3ccccc23)n(-c2ccc(P(C)(C)=O)cc2)n1` [Example 14, 1-(3-(tert-Butyl)-1-(4-(dimethylphosphoryl)phenyl)-1H-pyrazol-5-yl)-3-(4-((2-((2-oxoindolin-6-yl)amino)pyrimidin-4-yl)oxy)naphthalen-1-yl)urea], for which the half-maximal inhibitory concentration (IC50) against GSK3α was determined as 294 nM; in the test on PBMCs (setting [1]), 13.2 nM; in the test with PBMCs (setting [2]), 4 nM.

Turning to `CC(C)(C)c1cc(NC(=O)Nc2ccc(Oc3ccnc(Nc4cccc(C(=O)NCCN5CCOCC5)c4)n3)c3ccccc23)n(-c2cccc(P(C)(C)=O)c2)n1` [Example 16, 3-((4-((4-(3-(3-(tert-Butyl)-1-(3-(dimethylphosphoryl)phenyl)-1H-pyrazol-5-yl)ureido)-naphthalen-1-yl)oxy)pyrimidin-2-yl)amino)-N-(2-morpholinoethyl)benzamide], the results for the concentration for half-maximal inhibition (IC50) against GSK3α, in the test on PBMCs (setting [1]) and with PBMCs (setting [2]) were 72 nM, 8.3 nM and 4.3 nM, respectively.

`CC(C)(C)c1cc(NC(=O)Nc2ccc(Oc3ccnc(Nc4cccc(OCCN5CCOCC5)c4)n3)c3ccccc23)n(-c2ccc(P(C)(C)=O)cc2)n1` [Example 17, 1-(3-(tert-Butyl)-1-(4-(dimethylphosphoryl)phenyl)-1H-pyrazol-5-yl)-3-(4-((2-((3-(2-morpholinoethoxy)phenyl)amino)pyrimidin-4-yl)oxy)naphthalen-1-yl)urea]: the results for the half-maximal inhibitory concentration (IC50) against GSK3α, in the test on PBMCs (setting [1]) and in the test with PBMCs (setting [2]) were 74 nM, 5.4 nM and 1.8 nM, respectively.

As to `CC(C)(C)c1cc(NC(=O)Nc2ccc(Oc3ccnc(Nc4ccc(SCCO)cc4)n3)c3ccccc23)n(-c2ccc(P(C)(C)=O)cc2)n1` [Example 18, 1-(3-(tert-Butyl)-1-(4-(dimethylphosphoryl)phenyl)-1H-pyrazol-5-yl)-3-(4-((2-((4-((2-hydroxyethyl)thio)phenyl)amino)pyrimidin-4-yl)oxy)naphthalen-1-yl)urea], the figures for the IC50 at GSK3α, with PBMCs (setting [1]) and in the test with PBMCs (setting [2]) were 168 nM, 7.2 nM and 2.9 nM, respectively.

On to `CC(C)(C)c1cc(NC(=O)Nc2ccc(Oc3ccnc(Nc4ccccc4)n3)c3ccccc23)n(-c2ccc(P(C)(=O)O)cc2)n1` [Example 19, (4-(3-(tert-Butyl)-5-(3-(4-((2-(phenylamino)pyrimidin-4-yl)oxy)naphthalen-1-yl)ureido)-1H-pyrazol-1-yl)phenyl)(methyl)phosphinic acid], for which the IC50 at GSK3α was found to be 76 nM; in the test with PBMCs (setting [1]), 407 nM.

For the compound `CC(C)(C)c1cc(NC(=O)Nc2ccc(Oc3ccnc(Nc4ccc5onc(N)c5c4)n3)c3ccccc23)n(-c2ccc(P(C)(C)=O)cc2)n1` [Example 20, 1-(4-((2-((3-Aminobenzo[d]isoxazol-5-yl)amino)pyrimidin-4-yl)oxy)naphthalen-1-yl)-3-(3-(tert-butyl)-1-(4-(dimethylphosphoryl)phenyl)-1H-pyrazol-5-yl)urea], the IC50 on GSK3α came to 68 nM; in the test on PBMCs (setting [1]), 9 nM.

In the case of `CC(C)(C)c1cc(NC(=O)Nc2ccc(Oc3ccnc(Nc4cccc(C(=O)NCCN5CCOCC5)c4)n3)c3ccccc23)n(-c2ccc(P(C)(C)=O)cc2)n1` [Example 24, 3-((4-((4-(3-(3-(tert-Butyl)-1-(4-(dimethylphosphoryl)phenyl)-1H-pyrazol-5-yl)ureido)-naphthalen-1-yl)oxy)pyrimidin-2-yl)amino)-N-(2-morpholinoethyl)benzamide], the concentration for half-maximal inhibition (IC50) stood at 293 nM on GSK3α and 26.3 nM in the test on PBMCs (setting [1]).

A word on the IC50: it is the point on the concentration scale where inhibition reaches its midpoint.
